These compounds were tested against T1, Recombinant human LTC4 synthase (Homo sapiens, UniProt Q16873) (assay: LTC4 synthase assay (conversion of LTA4 methyl ester to LTC4 methyl ester, HPLC)). Details: not given.
T1 construct: made in house; host or cells: Pichia pastoris ('Piccia pastoralis' [sic])
T1 sequence (Q16873 1-150): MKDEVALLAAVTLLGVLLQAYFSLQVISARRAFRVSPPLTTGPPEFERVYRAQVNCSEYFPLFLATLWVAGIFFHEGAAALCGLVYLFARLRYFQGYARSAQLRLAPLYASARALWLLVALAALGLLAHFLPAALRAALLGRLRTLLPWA
Format: biochemical
Protocol: In the assay LTC4 synthase catalyses the reaction where the substrate LTA4 methyl ester is converted to LTC4 methyl ester. Recombinant human LTC4 synthase is expressed in Piccia pastoralis and the purified enzyme is dissolved in 25 mM Tris-buffer pH 7.8 and stored at −20° C. The assay is performed in phosphate buffered saline (PBS) pH 7.4, supplemented with 5 mM glutathione (GSH). The reaction is terminated by addition of acetonitrile/MeOH/acetic acid (50/50/1). The assay is performed at rt in 96-well plates. Analysis of the formed LTC4 methyl ester is performed with reversed phase HPLC (Waters 2795 utilizing an Onyx Monolithic C18 column). The mobile phase consists of acetonitrile/MeOH/H2O (32.5/30/37.5) with 1% acetic acid pH adjusted with NH3 to pH 5.6, and absorbance measured at 280 nm with a Waters 2487 UV-detector.
The following is added chronologically to each well: • 1. 50 μl assay buffer, PBS with 5 mM GSH. • 2. 0.5 μl inhibitor in DMSO. • 3. 2 μl LTC4 synthase in PBS. The total protein concentration in this solution is 0.025 mg/ml. Incubation of the plate at room temperature for 10 minutes. • 4. 0.5 μl LTA4 methyl ester. Incubation of the plate at rt for 1 min. • 5. 50 μl stop solution. 80 μl of the incubation mixture is analysed with HPLC.

Row | Compound | IC50
1 | O=C(c1ccc(NS(=O)(=O)c2ccc([N+](=O)[O-])cc2)c(C(=O)O)c1)c1ccc(NS(=O)(=O)c2ccc([N+](=O)[O-])cc2)c(C(=O)O)c1 [Example 4, 2-((4-nitrophenyl)sulfonylamino)-5-(3-carboxy-4-(((4-nitrophenyl)-sulfonyl)amino)benzoyl)benzoic acid] | 191 nM
2 | CCCCOc1ccc(S(=O)(=O)Nc2ccc(C(=O)c3ccc(NC(=O)c4ccc(OC(C)C)cc4)c(C(=O)O)c3)cc2C(=O)O)cc1 [Example 13, 5-[(3-Carboxy-4-(4-n-butoxy-benzenesulfonylamino)benzoyl)]-2-(4-isopropoxybenzoylamino)-benzoic acid] | 86 nM
3 | CC(C)Oc1ccc(Nc2ccc(C(=O)c3ccc(Nc4ccc(OC(C)C)cc4)c(C(=O)O)c3)cc2C(=O)O)cc1 [Example 2, 2-(4-isopropoxyphenylamino)-5-(4-(4-isopropoxyphenylamino)-3-carboxyphenylcarbonyl)benzoic acid] | 258 nM

Same assay, conditions: inhibitor concentration 0.3 μM; read-out: Percantage Inhibition (at a concentration of 0.3 μM)

Row | inhibition at 0.3 µM | Compound
4 | 92% | CCCCc1ccc(C(=O)Nc2ccc(C(=O)c3ccc(NC(=O)c4ccc(C(F)(F)F)cc4)c(C(=O)O)c3)cc2C(=O)O)cc1 [Example 9, 2-(4-butylbenzamido)-5-(4-(4-(trifluoromethyl)benzamido)-3-carboxyphenylcarbonyl)-benzoic acid]

Same assay, conditions: inhibitor concentration 10 μM; read-out: Percantage Inhibition at 10 μM (unless specified otherwise)

Row | Compound | inhibition at 10 µM
5 | O=C(c1ccc(Nc2ccc(F)c(F)c2)cc1)c1ccc(Oc2ccc(F)c(F)c2)c(C(=O)O)c1 [8:1, 2-(3,4-Difluoro-phenoxy)-5-[4-(3,4-difluoro-phenylamino)-benzoyl]-benzoic acid] | 97%
6 | O=C(Nc1ccc(C(=O)c2ccc(NS(=O)(=O)c3ccc(Cl)cc3)c(C(=O)O)c2)cc1)c1cccc(Cl)c1 [7:2, 2-(4-Chloro-benzenesulfonylamino)-5-[4-(3-chloro-benzoylamino)-benzoyl]-benzoic acid] | 100%
7 | O=C(c1ccc(NS(=O)(=O)c2ccc([N+](=O)[O-])cc2)c(C(=O)O)c1)c1ccc(NS(=O)(=O)c2ccc([N+](=O)[O-])cc2)c(C(=O)O)c1 [Example 4, 2-((4-nitrophenyl)sulfonylamino)-5-(3-carboxy-4-(((4-nitrophenyl)-sulfonyl)amino)benzoyl)benzoic acid] | 100%
8 | O=C(Nc1ccc(C(=O)c2ccc(NS(=O)(=O)c3ccc(Cl)cc3)cc2)cc1C(=O)O)c1cccc(Cl)c1 [7:11, 5-[4-(4-Chloro-benzenesulfonylamino)-benzoyl]-2-(3-chloro-benzoylamino)-benzoic acid] | 98%
9 | CN(c1ccc(Cl)cc1)c1ccc(C(=O)c2ccc(Oc3ccccc3OC(F)(F)C(F)F)c(C(=O)O)c2)cc1 [6:8, 5-{4-[(4-Chloro-phenyl)-methyl-amino]-benzoyl}-2-[2-(1,1,2,2-tetrafluoro-ethoxy)-phenoxy]-benzoic acid] | 98%
10 | CN(c1ccc(Cl)cc1)c1ccc(C(=O)c2ccc(Nc3ccc(C(F)(F)F)cc3)c(C(=O)O)c2)cc1 [9:3, 5-{4-[(4-Chloro-phenyl)-methyl-amino]-benzoyl}-2-(4-trifluoromethyl-phenylamino)-benzoic acid] | 86%
11 | O=C(c1ccc(Oc2ccc(C(F)(F)F)cc2)cc1)c1ccc(Oc2ccc(F)c(F)c2)c(C(=O)O)c1 [8:5, 2-(3,4-Difluoro-phenoxy)-5-[4-(4-trifluoromethyl-phenoxy)-benzoyl]-benzoic acid] | 96%
12 | CCCCOc1ccc(S(=O)(=O)Nc2ccc(C(=O)c3ccc(NC(=O)c4ccc(OC(C)C)cc4)c(C(=O)O)c3)cc2C(=O)O)cc1 [Example 13, 5-[(3-Carboxy-4-(4-n-butoxy-benzenesulfonylamino)benzoyl)]-2-(4-isopropoxybenzoylamino)-benzoic acid] | 100%
13 | CN(c1ccc(Cl)cc1)c1ccc(C(=O)c2ccc(Oc3cccc(Cl)c3Cl)c(C(=O)O)c2)cc1 [6:9, 5-{4-[(4-Chloro-phenyl)-methyl-amino]-benzoyl}-2-(2,3-dichloro-phenoxy)-benzoic acid] | 66%
14 | CCCCOc1ccc(S(=O)(=O)Nc2ccc(C(=O)c3ccc(NC(=O)c4cccc(Cl)c4Cl)c(C(=O)O)c3)cc2C(=O)O)cc1 [Example 12, 5-[(3-Carboxy-4-(4-n-butoxy-benzenesulfonylamino)benzoyl)]-2-(2,3-dichlorobenzoylamino)benzoic acid] | 98%
15 | O=C(c1ccc(Nc2cccc(Cl)c2)cc1)c1ccc(Oc2ccc(F)c(F)c2)c(C(=O)O)c1 [8:2, 5-[4-(3-Chloro-phenylamino)-benzoyl]-2-(3,4-difluoro-phenoxy)-benzoic acid] | 98%
16 | CN(c1ccc(Cl)cc1)c1ccc(C(=O)c2ccc(Oc3cccc4c3CCCC4)c(C(=O)O)c2)cc1 [6:10, 5-{4-[(4-Chloro-phenyl)-methyl-amino]-benzoyl}-2-(5,6,7,8-tetrahydro-naphthalen-1-yloxy)-benzoic acid] | 88%
17 | O=C(c1ccc(NC(=O)c2cc(Cl)cnc2Cl)cc1)c1ccc(Nc2ccc(F)c(F)c2)c(C(=O)O)c1 [5:12, 5-{4-[(2,5-Dichloro-pyridine-3-carbonyl)-amino]-benzoyl}-2-(3,4-difluoro-phenylamino)-benzoic acid] | 98%
18 | O=C(c1ccc(NC(=O)c2ccccc2Cl)cc1)c1ccc(Nc2ccc(F)c(F)c2)c(C(=O)O)c1 [5:5, 5-[4-(2-Chloro-benzoylamino)-benzoyl]-2-(3,4-difluoro-phenylamino)-benzoic acid] | 97%
19 | CN(c1ccc(Cl)cc1)c1ccc(C(=O)c2ccc(Oc3cccc(Cl)c3F)c(C(=O)O)c2)cc1 [6:6, 2-(3-Chloro-2-fluoro-phenoxy)-5-{4-[(4-chloro-phenyl)-methyl-amino]-benzoyl}benzoic acid] | 83%
20 | CN(c1ccc(Cl)cc1)c1ccc(C(=O)c2ccc(Oc3ccc(Cl)cc3)c(C(=O)O)c2)cc1 [6:1, 2-(4-Chloro-phenoxy)-5-{4-[(4-chloro-phenyl)-methyl-amino]-benzoyl}-benzoic acid] | 62%
21 | CN(c1ccc(Cl)cc1)c1ccc(C(=O)c2ccc(Oc3cccc(Cl)c3)c(C(=O)O)c2)cc1 [6:2, 2-(3-Chloro-phenoxy)-5-{4-[(4-chloro-phenyl)-methyl-amino]-benzoyl}-benzoic acid] | 96%
22 | O=C(Nc1ccc(C(=O)c2ccc(NC(=O)c3cccc4ccsc34)c(C(=O)O)c2)cc1)c1cccc(Cl)c1 [7:5, 2-[(Benzo[b]thiophene-7-carbonyl)-amino]-5-[4-(3-chloro-benzoylamino)-benzoyl]-benzoic acid] | 100%
23 | O=C(Nc1ccc(C(=O)c2ccc(NC(=O)c3cccc(F)c3F)c(C(=O)O)c2)cc1)c1cccc(Cl)c1 [7:4, 5-[4-(3-Chloro-benzoylamino)-benzoyl]-2-(2,3-difluoro-benzoylamino)-benzoic acid] | 100%
24 | CN(c1ccc(Cl)cc1)c1ccc(C(=O)c2ccc(Oc3cccc(C(F)(F)F)c3F)c(C(=O)O)c2)cc1 [6:7, 5-{4-[(4-Chloro-phenyl)-methyl-amino]-benzoyl}-2-(2-fluoro-3-trifluoromethyl-phenoxy)-benzoic acid] | 96%
25 | O=C(c1ccc(NC(=O)c2cc(Cl)ccc2Cl)cc1)c1ccc(Nc2ccc(F)c(F)c2)c(C(=O)O)c1 [5:10, 5-[4-(2,5-Dichloro-benzoylamino)-benzoyl]-2-(3,4-difluoro-phenylamino)-benzoic acid] | 98%

Now from value to compound:

Row | inhibition at 10 µM | Compound
26 | 97% | O=C(c1ccc(Nc2ccc(Cl)cc2)c(C(=O)O)c1)c1ccc(Nc2ccc(Cl)cc2)c(C(=O)O)c1 [11:1, 5-{3-Carboxy-[4-(4-chloro-phenylamino)]-benzoyl}-2-(4-chloro-phenylamino)-benzoic acid]
27 | 98% | CCCCc1ccc(C(=O)Nc2ccc(C(=O)c3ccc(NC(=O)c4ccc(CCCC)cc4)c(C(=O)O)c3)cc2C(=O)O)cc1 [Example 3, 2-(4-butylbenzamido)-5-(4-(4-butylbenzamido)-3-carboxy-phenylcarbonyl)benzoic acid]
28 | 68% | CC(C)Oc1ccc(C(=O)Nc2ccc(C(=O)c3ccc(Nc4ccc(F)c(F)c4)c(C(=O)O)c3)cc2)cc1 [Example 15, 2-(3,4-difluorophenylamino)-5-(4-(4-isopropoxybenzamido)benzoyl)benzoic acid]
29 | 86% | CN(c1ccc(Cl)cc1)c1ccc(C(=O)c2ccc(NC3CCC(C(C)(C)C)CC3)c(C(=O)O)c2)cc1 (stereo not shown) [Example 14:3, 2-(4-tert-Butyl-cyclohexylamino)-5-{4-[(4-chloro-phenyl)-methyl-amino]-benzoyl}-benzoic acid]
30 | 82% | CN(c1ccc(Cl)cc1)c1ccc(C(=O)c2ccc(N(C)c3ccc(Cl)cc3)c(C(=O)O)c2)cc1C(=O)O [11:2, 5-{3-Carboxy-4-[(4-chlorophenyl)-methyl-amino]benzoyl}-2-[(4-chloro-phenyl)-methyl-amino]benzoic acid]
31 | 99% | CC(C)Oc1ccc(Nc2ccc(C(=O)c3ccc(Nc4ccc(OC(C)C)cc4)c(C(=O)O)c3)cc2C(=O)O)cc1 [Example 2, 2-(4-isopropoxyphenylamino)-5-(4-(4-isopropoxyphenylamino)-3-carboxyphenylcarbonyl)benzoic acid]
32 | 100% | CCCCCCC(=O)Nc1ccc(C(=O)c2ccc(NC(=O)c3ccc(Cl)cc3Cl)c(C(=O)O)c2)cc1 [14:2, 2-(2,4-Dichloro-benzoylamino)-5-(4-heptanoylamino-benzoyl)-benzoic acid]
33 | 77% | CN(c1ccc(Cl)cc1)c1ccc(C(=O)c2ccc(NC(=O)c3cccc(Cl)c3Cl)c(-c3nnn[nH]3)c2)cc1 [10:4, 2,3-Dichloro-N-[4-{4-[(4-chloro-phenyl)-methyl-amino]-benzoyl}-2-(1H-tetrazol-5-yl)-phenyl]-benzamide]
34 | 84% | CN(c1ccc(Cl)cc1)c1ccc(C(=O)c2ccc(Oc3cccc(Cl)c3)c(-c3nnn[nH]3)c2)cc1 [10:2, [4-(3-Chloro-phenoxy)-3-(1H-tetrazol-5-yl)-phenyl]-{4-[(4-chloro-phenyl)-methyl-amino]-phenyl}-methanone]
